# From US20060128792A1, “Deguelin as a chemopreventive agent for lung cancer” (priority 2002, published 2006)
# Several values for one entry are separate records, joined by “and”; a condition that tells them apart may be missing. Identical values can stand only once.
# Key:
# Assay type in all cases: cell-based
# [1] = tested on: H322; assay: MTT assay, growth inhibition by deguelin or deguelin derivatives; conditions: 3 days
# [2] = tested on: H460; assay: as above; conditions: 3 days
# [3] = tested on: H596; assay: as above; conditions: 3 days
# [4] = tested on: A549; assay: as above; conditions: 3 days
# [5] = tested on: H358; assay: as above; conditions: 3 days
# [6] = tested on: H1299; assay: as above; conditions: 3 days
# [7] = tested on: NSCLC cells; assay: MTT assay, growth inhibition of NSCLC cells by deguelin and deguelin derivatives (Table 2, FIG. 7); conditions: 0.01-1 μM, 3 days
compound,measurement,setting,value
C=C(C)[C@H]1Cc2c(ccc3c2O[C@@H]2COc4cc(OC)c(OC)cc4[C@@H]2C3=O)O1 [rotenone],"MTT assay reading, Average","[1]; H322, 0.01 μM",0.4327
same,"MTT assay reading, individual replicate","[1]; H322, 0.01 μM",0.477 and 0.569 and 0.498 and 0.266 and 0.304 and 0.489 and 0.426
same,"MTT assay reading, Average","[1]; H322, 0.1 μM",0.3726
same,"MTT assay reading, individual replicate","[1]; H322, 0.1 μM",0.414 and 0.357 and 0.41 and 0.408 and 0.319 and 0.361 and 0.339
same,"MTT assay reading, Average","[1]; H322, 0.5 μM",0.322
same,"MTT assay reading, individual replicate","[1]; H322, 0.5 μM",0.262 and 0.328 and 0.307 and 0.34 and 0.378 and 0.353 and 0.286
same,"MTT assay reading, Average","[1]; H322, 1 μM",0.2547
same,"MTT assay reading, individual replicate","[1]; H322, 1 μM",0.229 and 0.223 and 0.225 and 0.288 and 0.226 and 0.338 and 0.254
same,% control,"[2]; H460, 0.01 μM",0.14%
same,"MTT assay reading, Average","[2]; H460, 0.01 μM",0.2486
same,"MTT assay reading, individual replicate","[2]; H460, 0.01 μM",0.092 and 0.412 and 0.24 and 0.191 and 0.228 and 0.242 and 0.335
same,% control,"[2]; H460, 0.1 μM",0.10%
same,"MTT assay reading, Average","[2]; H460, 0.1 μM",0.1766
same,"MTT assay reading, individual replicate","[2]; H460, 0.1 μM",0.143 and 0.107 and 0.138 and 0.161 and 0.242 and 0.268 and 0.177
same,% control,"[2]; H460, 0.5 μM",0.09%
same,"MTT assay reading, Average","[2]; H460, 0.5 μM",0.1499
same,"MTT assay reading, individual replicate","[2]; H460, 0.5 μM",0.185 and 0.159 and 0.143 and 0.1 and 0.104 and 0.117 and 0.241
same,% control,"[2]; H460, 1 μM",0.10%
same,"MTT assay reading, Average","[2]; H460, 1 μM",0.1763
same,"MTT assay reading, individual replicate","[2]; H460, 1 μM",0.071 and 0.467 and 0.127 and 0.144 and 0.138 and 0.118 and 0.169
same,"MTT assay reading, Average","[3]; H596, 0.01 μM",0.4666
same,"MTT assay reading, individual replicate","[3]; H596, 0.01 μM",0.393 and 0.433 and 0.462 and 0.499 and 0.497 (2×) and 0.485
same,"MTT assay reading, Average","[3]; H596, 0.1 μM",0.3784
same,"MTT assay reading, individual replicate","[3]; H596, 0.1 μM",0.271 and 0.369 and 0.513 and 0.582 and 0.413 and 0.285 and 0.216
same,"MTT assay reading, Average","[3]; H596, 0.5 μM",0.2329
same,"MTT assay reading, individual replicate","[3]; H596, 0.5 μM",0.189 and 0.362 and 0.261 and 0.296 and 0.156 and 0.203 and 0.163
same,"MTT assay reading, Average","[3]; H596, 1 μM",0.177
same,"MTT assay reading, individual replicate","[3]; H596, 1 μM",0.205 (2×) and 0.123 and 0.193 and 0.172 and 0.161 and 0.18
same,% control,"[4]; A549, 0.01 μM",0.35%
same,"MTT assay reading, Average","[4]; A549, 0.01 μM",0.463
same,"MTT assay reading, individual replicate","[4]; A549, 0.01 μM",0.425 and 0.439 and 0.541 and 0.451 and 0.45 and 0.428 and 0.507
same,% control,"[4]; A549, 0.1 μM",0.27%
same,"MTT assay reading, Average","[4]; A549, 0.1 μM",0.3653
same,"MTT assay reading, individual replicate","[4]; A549, 0.1 μM",0.418 and 0.293 and 0.364 and 0.26 and 0.429 and 0.354 and 0.439
same,% control,"[4]; A549, 0.5 μM",0.27%
same,"MTT assay reading, Average","[4]; A549, 0.5 μM",0.3657
same,"MTT assay reading, individual replicate","[4]; A549, 0.5 μM",0.284 and 0.833 and 0.266 and 0.314 and 0.246 and 0.308 and 0.309
same,% control,"[4]; A549, 1 μM",0.13%
same,"MTT assay reading, Average","[4]; A549, 1 μM",0.1791
same,"MTT assay reading, individual replicate","[4]; A549, 1 μM",0.188 and 0.171 and 0.176 and 0.213 and 0.173 and 0.141 and 0.192
same,"MTT assay reading, Average","[5]; H358, 0.01 μM",0.3171
same,"MTT assay reading, individual replicate","[5]; H358, 0.01 μM",0.298 and 0.253 and 0.268 and 0.348 and 0.331 and 0.329 and 0.393
same,"MTT assay reading, Average","[5]; H358, 0.1 μM",0.309
same,"MTT assay reading, individual replicate","[5]; H358, 0.1 μM",0.257 and 0.27 and 0.281 and 0.311 and 0.338 and 0.371 and 0.335
same,"MTT assay reading, Average","[5]; H358, 0.5 μM",0.2334
same,"MTT assay reading, individual replicate","[5]; H358, 0.5 μM",0.263 and 0.209 and 0.189 and 0.244 and 0.198 and 0.235 and 0.296
same,"MTT assay reading, Average","[5]; H358, 1 μM",0.2736
same,"MTT assay reading, individual replicate","[5]; H358, 1 μM",0.308 and 0.205 and 0.243 and 0.287 and 0.258 and 0.247 and 0.367
same,"MTT assay reading, Average","[6]; H1299, 0.01 μM",0.2794
same,"MTT assay reading, individual replicate","[6]; H1299, 0.01 μM",0.249 and 0.392 and 0.221 and 0.209 and 0.261 and 0.311 and 0.313
same,"MTT assay reading, Average","[6]; H1299, 0.1 μM",0.1907
same,"MTT assay reading, individual replicate","[6]; H1299, 0.1 μM",0.25 and 0.3 and 0.158 and 0.09 and 0.125 and 0.235 and 0.177
same,"MTT assay reading, Average","[6]; H1299, 0.5 μM",0.2391
same,"MTT assay reading, individual replicate","[6]; H1299, 0.5 μM",0.308 and 0.259 and 0.248 and 0.197 and 0.195 and 0.179 and 0.288
same,"MTT assay reading, Average","[6]; H1299, 1 μM",0.2753
same,"MTT assay reading, individual replicate","[6]; H1299, 1 μM",0.226 and 0.193 and 0.23 and 0.175 and 0.76 and 0.148 and 0.195
COc1cc2c(cc1OC)[C@]1(O)C(=O)c3ccc4c(c3O[C@@H]1CO2)C=CC(C)(C)O4 [tephrosin],"MTT assay reading, Average","[1]; H322, 0.01 μM",0.6627
same,"MTT assay reading, individual replicate","[1]; H322, 0.01 μM",0.527 and 0.596 and 0.713 and 0.655 and 0.68 and 0.721 and 0.747
same,"MTT assay reading, Average","[1]; H322, 0.1 μM",0.7197
same,"MTT assay reading, individual replicate","[1]; H322, 0.1 μM",0.685 and 0.659 and 0.726 and 0.643 and 0.732 and 0.795 and 0.798
same,"MTT assay reading, Average","[1]; H322, 0.5 μM",0.1343
same,"MTT assay reading, individual replicate","[1]; H322, 0.5 μM",0.113 and 0.109 (2×) and 0.12 and 0.117 and 0.162 and 0.21
same,"MTT assay reading, Average","[1]; H322, 1 μM",0.2089
same,"MTT assay reading, individual replicate","[1]; H322, 1 μM",0.223 and 0.216 (3×) and 0.182 and 0.168 and 0.241
same,"inhibiting cell growth in NSCLC cells, ranking among the derivatives",[7],most effective
same,% control,"[2]; H460, 0.01 μM",0.05%
same,"MTT assay reading, Average","[2]; H460, 0.01 μM",0.0956
same,"MTT assay reading, individual replicate","[2]; H460, 0.01 μM",0.072 and 0.051 and 0.097 and 0.1 and 0.105 and 0.132 and 0.112
same,% control,"[2]; H460, 0.1 μM",0.05%
same,"MTT assay reading, Average","[2]; H460, 0.1 μM",0.0816
same,"MTT assay reading, individual replicate","[2]; H460, 0.1 μM",0.072 and 0.067 and 0.086 (2×) and 0.112 and 0.056 and 0.092
same,% control,"[2]; H460, 0.5 μM",0.08%
same,"MTT assay reading, Average","[2]; H460, 0.5 μM",0.141
same,"MTT assay reading, individual replicate","[2]; H460, 0.5 μM",0.088 and 0.113 (2×) and 0.159 and 0.16 and 0.19 and 0.164
same,% control,"[2]; H460, 1 μM",0.10%
same,"MTT assay reading, Average","[2]; H460, 1 μM",0.1819
same,"MTT assay reading, individual replicate","[2]; H460, 1 μM",0.162 and 0.184 and 0.154 and 0.272 and 0.183 and 0.133 and 0.185
same,"MTT assay reading, Average","[3]; H596, 0.01 μM",0.1156
same,"MTT assay reading, individual replicate","[3]; H596, 0.01 μM",0.062 and 0.127 and 0.078 and 0.138 (2×) and 0.103 and 0.163
same,"MTT assay reading, Average","[3]; H596, 0.1 μM",0.0826
same,"MTT assay reading, individual replicate","[3]; H596, 0.1 μM",0.082 and 0.062 and 0.066 and 0.095 and 0.09 and 0.058 and 0.125
same,"MTT assay reading, Average","[3]; H596, 0.5 μM",0.1631
same,"MTT assay reading, individual replicate","[3]; H596, 0.5 μM",0.137 and 0.159 and 0.151 and 0.111 and 0.158 and 0.076 and 0.35
same,"MTT assay reading, Average","[3]; H596, 1 μM",0.1983
same,"MTT assay reading, individual replicate","[3]; H596, 1 μM",0.287 and 0.257 and 0.172 and 0.151 and 0.215 and 0.131 and 0.175
same,% control,"[4]; A549, 0.01 μM",0.16%
same,"MTT assay reading, Average","[4]; A549, 0.01 μM",0.2403
same,"MTT assay reading, individual replicate","[4]; A549, 0.01 μM",0.274 and 0.196 and 0.223 and 0.284 and 0.229 and 0.252 and 0.224
same,% control,"[4]; A549, 0.1 μM",0.17%
same,"MTT assay reading, Average","[4]; A549, 0.1 μM",0.248
same,"MTT assay reading, individual replicate","[4]; A549, 0.1 μM",0.161 and 0.279 and 0.299 and 0.218 and 0.262 and 0.236 and 0.281
same,% control,"[4]; A549, 0.5 μM",0.17%
same,"MTT assay reading, Average","[4]; A549, 0.5 μM",0.255
same,"MTT assay reading, individual replicate","[4]; A549, 0.5 μM",0.299 and 0.243 and 0.26 and 0.217 (2×) and 0.305 and 0.244
same,% control,"[4]; A549, 1 μM",0.23%
same,"MTT assay reading, Average","[4]; A549, 1 μM",0.3313
same,"MTT assay reading, individual replicate","[4]; A549, 1 μM",0.434 and 0.15 and 0.366 and 0.295 and 0.386 and 0.341 and 0.347
same,"MTT assay reading, Average","[5]; H358, 0.01 μM",0.6206
same,"MTT assay reading, individual replicate","[5]; H358, 0.01 μM",0.508 and 0.601 and 0.658 and 0.674 and 0.608 and 0.59 and 0.705
same,"MTT assay reading, Average","[5]; H358, 0.1 μM",0.5327
same,"MTT assay reading, individual replicate","[5]; H358, 0.1 μM",0.522 and 0.496 (2×) and 0.558 and 0.516 and 0.579 and 0.562
same,"MTT assay reading, Average","[5]; H358, 0.5 μM",0.1047
same,"MTT assay reading, individual replicate","[5]; H358, 0.5 μM",0.054 and 0.048 and 0.1 and 0.105 and 0.117 and 0.147 and 0.162
same,"MTT assay reading, Average","[5]; H358, 1 μM",0.2634
same,"MTT assay reading, individual replicate","[5]; H358, 1 μM",0.245 and 0.233 and 0.332 and 0.139 and 0.234 and 0.293 and 0.368
same,"MTT assay reading, Average","[6]; H1299, 0.01 μM",0.4143
same,"MTT assay reading, individual replicate","[6]; H1299, 0.01 μM",0.38 and 0.248 and 0.428 and 0.399 and 0.471 and 0.527 and 0.447
same,"MTT assay reading, Average","[6]; H1299, 0.1 μM",0.7746
same,"MTT assay reading, individual replicate","[6]; H1299, 0.1 μM",0.795 and 0.806 and 0.783 and 0.784 and 0.956 and 0.491 and 0.807
same,"MTT assay reading, Average","[6]; H1299, 0.5 μM",0.1507
same,"MTT assay reading, individual replicate","[6]; H1299, 0.5 μM",0.135 and 0.147 and 0.166 and 0.204 and 0.179 and 0.097 and 0.127
same,"MTT assay reading, Average","[6]; H1299, 1 μM",0.2739
same,"MTT assay reading, individual replicate","[6]; H1299, 1 μM",0.261 and 0.279 and 0.255 and 0.26 and 0.36 and 0.183 and 0.319
bromorot-2′-enoic acid,"inhibiting cell growth in NSCLC cells, ranking among the derivatives",[7],most effective
